Reference: US20080214606A1, “Methods for the Identification and Use of Compounds Suitable for the Treatment of Drug Resistant Cancer Cells” (The Government of the United States of America as …, priority 2004, published 2008)

Assays:
ABCC7 = molecular target: T1, ABCC7 (Homo sapiens, UniProt P13569); assay: Correlation of ABCC7 expression with drug sensitivity across the NCI-60; assay type: cell-based; settings: Pearson correlation of ABCC7 expression with sensitivity of the 60 cell lines; 1429 compounds; inverse, p < 0.0001
T1 construct: profiled in 60 diverse cancer cell lines (the NCI-60) using real-time RT-PCR; endogenous in cells; host or cells: NCI-60 human cancer cell lines
T1 sequence (P13569 whole entry): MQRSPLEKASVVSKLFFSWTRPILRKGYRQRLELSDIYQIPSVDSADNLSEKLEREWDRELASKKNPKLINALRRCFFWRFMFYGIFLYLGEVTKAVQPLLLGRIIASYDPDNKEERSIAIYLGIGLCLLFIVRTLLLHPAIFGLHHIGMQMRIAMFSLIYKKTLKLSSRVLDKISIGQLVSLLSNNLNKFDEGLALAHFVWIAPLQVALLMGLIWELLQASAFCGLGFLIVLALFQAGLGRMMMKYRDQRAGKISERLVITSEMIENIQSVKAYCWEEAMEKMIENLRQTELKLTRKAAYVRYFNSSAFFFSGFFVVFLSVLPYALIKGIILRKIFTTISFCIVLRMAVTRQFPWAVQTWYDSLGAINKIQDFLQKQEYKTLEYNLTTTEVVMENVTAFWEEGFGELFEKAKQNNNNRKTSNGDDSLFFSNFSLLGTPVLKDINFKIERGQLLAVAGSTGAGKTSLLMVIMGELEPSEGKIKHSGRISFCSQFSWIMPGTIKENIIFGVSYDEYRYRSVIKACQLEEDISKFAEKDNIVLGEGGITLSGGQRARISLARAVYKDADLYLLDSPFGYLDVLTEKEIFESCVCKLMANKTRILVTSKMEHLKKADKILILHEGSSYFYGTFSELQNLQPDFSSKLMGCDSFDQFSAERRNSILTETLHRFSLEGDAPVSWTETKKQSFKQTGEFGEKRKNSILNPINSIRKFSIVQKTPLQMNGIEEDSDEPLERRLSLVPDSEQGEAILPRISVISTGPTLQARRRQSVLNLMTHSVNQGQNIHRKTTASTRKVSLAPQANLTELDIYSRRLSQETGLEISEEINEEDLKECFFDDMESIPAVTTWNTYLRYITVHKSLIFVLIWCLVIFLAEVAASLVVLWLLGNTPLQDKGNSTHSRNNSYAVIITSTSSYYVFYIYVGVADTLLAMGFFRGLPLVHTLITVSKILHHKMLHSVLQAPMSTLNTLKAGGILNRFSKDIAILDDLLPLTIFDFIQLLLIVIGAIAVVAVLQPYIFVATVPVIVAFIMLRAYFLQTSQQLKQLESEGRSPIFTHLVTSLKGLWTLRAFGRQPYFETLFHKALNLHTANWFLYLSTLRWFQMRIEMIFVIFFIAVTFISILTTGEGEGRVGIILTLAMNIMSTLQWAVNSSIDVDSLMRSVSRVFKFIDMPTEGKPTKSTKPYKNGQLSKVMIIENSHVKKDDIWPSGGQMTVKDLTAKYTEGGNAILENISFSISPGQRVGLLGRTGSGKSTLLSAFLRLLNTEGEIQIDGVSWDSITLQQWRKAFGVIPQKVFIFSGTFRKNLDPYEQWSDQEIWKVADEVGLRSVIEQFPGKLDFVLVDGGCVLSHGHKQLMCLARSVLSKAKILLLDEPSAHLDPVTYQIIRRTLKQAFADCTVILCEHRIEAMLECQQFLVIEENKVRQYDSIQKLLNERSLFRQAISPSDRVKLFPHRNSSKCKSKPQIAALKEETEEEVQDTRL
Protocol: (§1) Expression levels are measured by real-time quantitative RT-PCR using the LightCycler RNA Amplification SYBR Green kit and a LightCycler machine (Roche Biochemicals, Indianapolis, Ind.). […] When possible, the amplicons are designed to encompass exon-intron boundaries to avoid amplification of genomic DNA. Since the Syber Green assay detects accumulation of double stranded DNA, primers are selected (from a battery consisting of about 200 primers) that amplified a single product of the correct size.
(§2) RT-PCR is carried out on 150 ng total RNA, in the presence of 250 nM specific primers. Following reverse transcription (20 min at 50° C.), the PCR reaction consists of 45 cycles of denaturation (15 sec at 95° C.), annealing (30 sec at 58° C.), and elongation (30 sec at 72° C.). No-template (water) reaction mixtures are prepared as negative controls.
(§3) During PCR amplification, fluorescence emission is measured and recorded in real time by the LightCycler. Crossing point values are calculated, using the LightCycler software package, by the Fit Points analysis method, with baseline fluorescence set at 1. The SyberGreen assay measures accumulation of double-stranded products, and the appearance of primer dimers limits quantitation at high cycle numbers. The specificity of amplified products is verified by melting-curve analysis and agarose gel electrophoresis (not shown). The raw results are expressed as number of cycles to reach the crossing point. If the desired product is not detected, the corresponding value is adjusted to crossing points indicating no expression. To assess the contribution of experimental artifacts, selected cell lines are assessed in replicate.
(§4) The two are combined to form a joint dataset that includes 1429 compounds.
(§5) To determine quantitatively how well the 47 genes cluster the cell lines by their tissues of origin, a statistical method is employed wherein the kappa statistic is used to indicate how well the observed clusters correspond to the nine tissue-of-origin classifications. […] To control the overall false type 1 error rate, both a step-down procedure (Westfall and Young, 1993, Resampling-Based Multiple Testing: Examples and Methods for p-value Adjustment (New York: Wiley)) and a step-up procedure (Reiner et al., 2003, Bioinformatics 19:368-375) were employed to adjust for multiple testing of all 47 genes simultaneously. In the Benjamini-Hochberg procedure the p-values are computed in the standard way by permutation, assuming that all distributions are exchangeable: the number of values in the permuted data with correlations over a threshold, divided by the number of compounds and by the number of permutations. In this analysis, the False Discovery Rate (q-value) at which each compound would be declared was calculated using the step-up procedure for positively correlated test statistics (again true because all correlations being compared are computed against the same ABC gene): in this procedure the first q-value for the largest correlation is the Bonferroni-corrected p-value for that gene; then further q-values are calculated as qj=max(pj*1429/j, qj-1). This procedure limits the expected proportion of false positives in the list 1, . . . , j to at most qj.

ABCB11 = molecular target: T2, ABCB11 (Homo sapiens, UniProt O95342); assay: Correlation of ABCB11 expression with drug sensitivity across the NCI-60; assay type: cell-based; settings: Pearson correlation of ABCB11 expression with sensitivity of the 60 cell lines; 1429 compounds; inverse, p < 0.0001
T2 construct: profiled in 60 diverse cancer cell lines (the NCI-60) using real-time RT-PCR; endogenous in cells; host or cells: NCI-60 human cancer cell lines
Protocol: as §1, §2, §3, §4
(§6) In the Benjamini-Hochberg procedure the p-values are computed in the standard way by permutation, assuming that all distributions are exchangeable: the number of values in the permuted data with correlations over a threshold, divided by the number of compounds and by the number of permutations. In this analysis, the False Discovery Rate (q-value) at which each compound would be declared was calculated using the step-up procedure for positively correlated test statistics (again true because all correlations being compared are computed against the same ABC gene): in this procedure the first q-value for the largest correlation is the Bonferroni-corrected p-value for that gene; then further q-values are calculated as qj=max(pj*1429/j, qj-1). This procedure limits the expected proportion of false positives in the list 1, . . . , j to at most qj.

ABCC3 = molecular target: T3, ABCC3 (Homo sapiens, UniProt O15438); assay: Correlation of ABCC3 expression with drug sensitivity across the NCI-60; assay type: cell-based; settings: Pearson correlation of ABCC3 expression with sensitivity of the 60 cell lines; 1429 compounds; inverse, p < 0.0001
T3 construct: profiled in 60 diverse cancer cell lines (the NCI-60) using real-time RT-PCR; endogenous in cells; host or cells: NCI-60 human cancer cell lines
Protocol: as §1, §2, §3, §4, §5

ABCA4 = molecular target: T4, ABCA4 (Homo sapiens, UniProt P78363); assay: Correlation of ABCA4 expression with drug sensitivity across the NCI-60; assay type: cell-based; settings: Pearson correlation of ABCA4 expression with sensitivity of the 60 cell lines; 1429 compounds; inverse, p < 0.0001
T4 construct: profiled in 60 diverse cancer cell lines (the NCI-60) using real-time RT-PCR; endogenous in cells; host or cells: NCI-60 human cancer cell lines
Protocol: Expression levels are measured by real-time quantitative RT-PCR using the LightCycler RNA Amplification SYBR Green kit and a LightCycler machine (Roche Biochemicals, Indianapolis, Ind.). Specific oligonucleotide probes are designed for each of the ABC transporters using DNAStar Primer Select (DNASTAR Inc.), and they may be synthesized at Lofstrand Laboratories (Gaithersburg, Md.). When possible, the amplicons are designed to encompass exon-intron boundaries to avoid amplification of genomic DNA. Since the Syber Green assay detects accumulation of double stranded DNA, primers are selected (from a battery consisting of about 200 primers) that amplified a single product of the correct size.
as §2, §3, §4
To control the overall false type 1 error rate, both a step-down procedure (Westfall and Young, 1993, Resampling-Based Multiple Testing: Examples and Methods for p-value Adjustment (New York: Wiley)) and a step-up procedure (Reiner et al., 2003, Bioinformatics 19:368-375) were employed to adjust for multiple testing of all 47 genes simultaneously. […] In this analysis, the False Discovery Rate (q-value) at which each compound would be declared was calculated using the step-up procedure for positively correlated test statistics (again true because all correlations being compared are computed against the same ABC gene): in this procedure the first q-value for the largest correlation is the Bonferroni-corrected p-value for that gene; then further q-values are calculated as qj=max(pj*1429/j, qj-1). […]

ABCC1 = molecular target: T5, ABCC1 (Homo sapiens, UniProt P33527); assay: Correlation of ABCC1 expression with drug sensitivity across the NCI-60; assay type: cell-based; settings: Pearson correlation of ABCC1 expression with sensitivity of the 60 cell lines; 1429 compounds; inverse, p < 0.0001
T5 construct: profiled in 60 diverse cancer cell lines (the NCI-60) using real-time RT-PCR; endogenous in cells; host or cells: NCI-60 human cancer cell lines
Protocol: as §1, §2, §3, §4, §6

ABCA3 = molecular target: T6, ABCA3 (Homo sapiens, UniProt Q99758); assay: Correlation of ABCA3 expression with drug sensitivity across the NCI-60; assay type: cell-based; settings: Pearson correlation of ABCA3 expression with sensitivity of the 60 cell lines; 1429 compounds; inverse, p < 0.0001
T6 construct: profiled in 60 diverse cancer cell lines (the NCI-60) using real-time RT-PCR; endogenous in cells; host or cells: NCI-60 human cancer cell lines
T6 sequence (Q99758 whole entry): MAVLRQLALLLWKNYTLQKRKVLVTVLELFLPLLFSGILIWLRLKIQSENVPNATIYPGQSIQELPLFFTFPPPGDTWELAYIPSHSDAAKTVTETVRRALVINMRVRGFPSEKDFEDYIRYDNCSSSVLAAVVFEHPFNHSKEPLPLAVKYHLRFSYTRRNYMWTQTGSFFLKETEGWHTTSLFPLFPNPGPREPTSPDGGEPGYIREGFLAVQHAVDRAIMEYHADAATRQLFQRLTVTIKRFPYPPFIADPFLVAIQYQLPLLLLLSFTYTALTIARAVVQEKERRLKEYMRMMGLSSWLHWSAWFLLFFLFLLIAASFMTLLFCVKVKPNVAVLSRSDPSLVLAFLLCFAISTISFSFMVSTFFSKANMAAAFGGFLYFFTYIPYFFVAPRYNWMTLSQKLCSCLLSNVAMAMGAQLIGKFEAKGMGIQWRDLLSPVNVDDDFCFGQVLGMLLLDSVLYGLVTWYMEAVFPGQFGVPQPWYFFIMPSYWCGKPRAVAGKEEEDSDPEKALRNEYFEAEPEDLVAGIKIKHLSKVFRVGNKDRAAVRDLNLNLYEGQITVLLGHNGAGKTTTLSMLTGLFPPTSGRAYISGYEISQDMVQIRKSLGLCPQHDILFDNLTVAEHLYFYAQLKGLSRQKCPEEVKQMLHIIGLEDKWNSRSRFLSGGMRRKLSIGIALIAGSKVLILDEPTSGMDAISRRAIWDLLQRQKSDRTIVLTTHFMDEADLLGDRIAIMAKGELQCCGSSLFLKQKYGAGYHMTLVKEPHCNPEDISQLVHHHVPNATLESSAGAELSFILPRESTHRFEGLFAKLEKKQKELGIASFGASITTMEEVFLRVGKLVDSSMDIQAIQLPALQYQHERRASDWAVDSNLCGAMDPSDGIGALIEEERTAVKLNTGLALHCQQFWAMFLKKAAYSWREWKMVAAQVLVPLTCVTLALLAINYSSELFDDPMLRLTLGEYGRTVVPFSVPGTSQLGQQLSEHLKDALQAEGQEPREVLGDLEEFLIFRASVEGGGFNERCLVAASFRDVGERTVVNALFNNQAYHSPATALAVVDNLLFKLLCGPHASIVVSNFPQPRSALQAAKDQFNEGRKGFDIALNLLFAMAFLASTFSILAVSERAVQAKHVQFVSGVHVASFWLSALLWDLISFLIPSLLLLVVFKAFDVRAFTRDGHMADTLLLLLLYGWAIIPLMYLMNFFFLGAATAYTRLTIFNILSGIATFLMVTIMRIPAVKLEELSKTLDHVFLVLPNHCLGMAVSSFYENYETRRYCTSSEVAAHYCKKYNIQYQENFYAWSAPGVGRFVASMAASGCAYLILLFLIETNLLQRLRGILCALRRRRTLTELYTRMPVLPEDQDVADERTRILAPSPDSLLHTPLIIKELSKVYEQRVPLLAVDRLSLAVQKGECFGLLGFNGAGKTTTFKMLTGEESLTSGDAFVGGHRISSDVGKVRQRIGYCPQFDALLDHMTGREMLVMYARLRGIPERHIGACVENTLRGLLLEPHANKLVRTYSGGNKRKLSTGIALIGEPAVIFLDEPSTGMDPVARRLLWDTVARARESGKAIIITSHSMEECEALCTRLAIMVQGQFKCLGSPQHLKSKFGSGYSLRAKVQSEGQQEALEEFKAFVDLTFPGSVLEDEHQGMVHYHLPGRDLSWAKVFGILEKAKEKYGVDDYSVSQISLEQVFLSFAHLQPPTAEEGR
Protocol: as §1, §2, §3, §4, §5

ABCB1 = ABCB1 (Homo sapiens, UniProt P08183); assay: Correlation of ABCB1 expression with drug sensitivity across the NCI-60
Sequence of ABCB1 (P08183 whole entry): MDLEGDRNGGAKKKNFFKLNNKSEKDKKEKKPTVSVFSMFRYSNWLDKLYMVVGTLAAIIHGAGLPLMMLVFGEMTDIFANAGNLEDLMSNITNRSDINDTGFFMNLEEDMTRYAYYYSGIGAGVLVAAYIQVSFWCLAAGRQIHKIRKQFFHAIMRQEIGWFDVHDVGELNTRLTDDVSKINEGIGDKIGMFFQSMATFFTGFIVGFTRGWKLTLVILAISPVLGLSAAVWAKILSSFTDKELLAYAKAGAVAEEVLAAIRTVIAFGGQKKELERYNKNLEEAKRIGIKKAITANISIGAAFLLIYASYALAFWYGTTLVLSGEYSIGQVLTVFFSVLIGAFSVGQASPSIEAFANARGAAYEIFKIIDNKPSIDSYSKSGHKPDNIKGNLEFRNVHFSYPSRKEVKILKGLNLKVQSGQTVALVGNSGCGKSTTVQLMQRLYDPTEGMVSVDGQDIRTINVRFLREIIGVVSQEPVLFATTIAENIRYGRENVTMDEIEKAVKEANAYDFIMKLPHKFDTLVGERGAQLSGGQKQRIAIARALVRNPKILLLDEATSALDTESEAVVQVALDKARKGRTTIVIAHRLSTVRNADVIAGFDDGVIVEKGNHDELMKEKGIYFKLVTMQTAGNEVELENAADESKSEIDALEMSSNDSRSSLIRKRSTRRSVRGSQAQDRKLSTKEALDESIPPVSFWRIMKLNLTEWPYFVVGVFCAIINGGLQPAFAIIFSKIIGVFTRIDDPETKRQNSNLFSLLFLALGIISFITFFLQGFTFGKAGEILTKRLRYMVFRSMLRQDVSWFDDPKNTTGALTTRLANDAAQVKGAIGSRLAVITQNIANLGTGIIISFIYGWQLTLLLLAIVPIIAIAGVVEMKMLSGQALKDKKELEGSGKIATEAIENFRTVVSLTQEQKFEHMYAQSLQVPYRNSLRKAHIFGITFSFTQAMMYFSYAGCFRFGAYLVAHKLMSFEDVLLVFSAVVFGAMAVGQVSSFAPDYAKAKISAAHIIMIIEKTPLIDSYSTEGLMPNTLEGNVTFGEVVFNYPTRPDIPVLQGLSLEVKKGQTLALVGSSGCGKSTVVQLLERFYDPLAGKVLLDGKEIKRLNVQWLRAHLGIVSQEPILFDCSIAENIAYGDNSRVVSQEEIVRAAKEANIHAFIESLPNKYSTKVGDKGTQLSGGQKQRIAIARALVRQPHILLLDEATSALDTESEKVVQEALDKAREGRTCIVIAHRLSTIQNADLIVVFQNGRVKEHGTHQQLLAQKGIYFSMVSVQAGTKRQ
How it was run: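 SYBR Green real-time RT-PCR on 150 ng total RNA with 250 nM primers: RT 20 min at 50 °C, then 45 cycles; expression taken as crossing-point cycle number. Correlated with drug sensitivity of 1429 compounds across the cell panel; permutation p-values with step-down and step-up (FDR q-value) multiple-testing correction.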

ABCB5 = molecular target: T7, ABCB5 (Homo sapiens, UniProt Q2M3G0); assay: Correlation of ABCB5 expression with drug sensitivity across the NCI-60; assay type: cell-based; settings: Pearson correlation of ABCB5 expression with sensitivity of the 60 cell lines; 1429 compounds; inverse, p < 0.0001
T7 construct: profiled in 60 diverse cancer cell lines (the NCI-60) using real-time RT-PCR; endogenous in cells; host or cells: NCI-60 human cancer cell lines
T7 sequence (Q2M3G0 1-1257): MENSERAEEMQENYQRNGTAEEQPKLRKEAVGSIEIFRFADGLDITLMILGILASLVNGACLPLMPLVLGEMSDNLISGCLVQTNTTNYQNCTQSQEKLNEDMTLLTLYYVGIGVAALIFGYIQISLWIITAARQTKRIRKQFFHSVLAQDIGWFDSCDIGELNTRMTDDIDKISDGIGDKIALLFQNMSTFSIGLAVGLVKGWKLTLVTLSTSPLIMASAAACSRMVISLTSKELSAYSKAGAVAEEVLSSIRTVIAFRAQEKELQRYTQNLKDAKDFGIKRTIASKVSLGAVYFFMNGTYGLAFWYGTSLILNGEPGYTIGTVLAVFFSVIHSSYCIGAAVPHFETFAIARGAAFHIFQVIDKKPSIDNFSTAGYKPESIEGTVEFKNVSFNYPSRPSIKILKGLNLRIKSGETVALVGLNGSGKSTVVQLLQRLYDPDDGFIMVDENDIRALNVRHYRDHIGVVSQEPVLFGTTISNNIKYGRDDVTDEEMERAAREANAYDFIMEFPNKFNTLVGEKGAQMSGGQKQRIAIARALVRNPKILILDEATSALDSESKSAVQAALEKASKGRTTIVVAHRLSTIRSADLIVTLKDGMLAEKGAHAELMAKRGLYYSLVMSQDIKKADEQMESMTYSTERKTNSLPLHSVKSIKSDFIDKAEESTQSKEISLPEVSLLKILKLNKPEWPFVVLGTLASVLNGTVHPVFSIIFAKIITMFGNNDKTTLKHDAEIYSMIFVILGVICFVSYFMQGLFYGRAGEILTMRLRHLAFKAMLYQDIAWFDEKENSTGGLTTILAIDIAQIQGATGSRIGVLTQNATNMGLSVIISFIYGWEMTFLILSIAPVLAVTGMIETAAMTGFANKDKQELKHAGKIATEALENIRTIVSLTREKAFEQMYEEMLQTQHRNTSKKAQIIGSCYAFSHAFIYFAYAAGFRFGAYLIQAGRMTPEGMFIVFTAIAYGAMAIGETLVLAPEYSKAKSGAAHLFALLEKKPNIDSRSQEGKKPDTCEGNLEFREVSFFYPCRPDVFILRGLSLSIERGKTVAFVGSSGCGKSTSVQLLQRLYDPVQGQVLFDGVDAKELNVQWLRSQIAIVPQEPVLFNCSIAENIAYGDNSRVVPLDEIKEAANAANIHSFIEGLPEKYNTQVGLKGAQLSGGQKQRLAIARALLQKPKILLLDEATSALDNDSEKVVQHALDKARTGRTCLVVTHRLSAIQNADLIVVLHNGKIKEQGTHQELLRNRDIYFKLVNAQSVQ
Protocol: as §1, §2, §3, §4, §6

[1] = tested on: KB-V1 cells (over-express MDR1-P-gp) vs parental KB-3-1 cells; assay: MTT assay using the KB-3-1/KB-V1 cell pair; assay type: cell-based, human
Protocol: Cell survival is measured by the MTT (3-(4,5-Dimethylthiazol-2-yl)-2,5-diphenyltetrazolium) Assay. Cells are seeded in 100 μl medium at a density of 5000 cells/well in 96 well plates, and serially diluted drug (with or without 2 μM PSC 833) is added the following day in 100 μl medium to give the indicated final concentration. Cells are then incubated for 72 hrs at 37° C. in 5% CO2, and the MTT assay is performed according to the manufacturer's instructions (Molecular Probes, Eugene, Oreg.).
To test whether our approach using the NCI-60 does, in fact, identify new substrates, an MTT assay is used to test all top-scoring compounds that were available from DTP for follow-up experiments. KB-3-1, a human carcinoma cell line, and KB-V1, a multidrug resistant derivative of KB-3-1 that over-expresses MDR1-P-gp (Shen et al., 1986, J. Biol. Chem. 261:7762-7770), are used for the tests. […] This resistance of KB-V-1 cells is invariably reversible by PSC 833. The intrinsic fluorescence of one of the compounds, NSC 634791, allows for the measurement of the effect of MDR1 activity on its export from cells.

Work on `CC12CCC(CC1)C(C)(C)O2` [NSC 6171] yielded a Correlation (ABCC7) of −0.4552.
With `CC(C)(C)c1nc2c(o1)C(=Nc1ccc(F)cc1)c1ccccc1C2=O` [NSC 626030] the Correlation (ABCC7) was −0.5025.
Work on `Cc1c2ccnc(C(N)=O)c2c(C)c2c1[nH]c1ccccc12.Cl` [NSC 335142] yielded a Correlation (ABCB11) of −0.4214.
`CC(=O)NC1=CC(=O)c2cc(C)cc(O)c2C1=O` [NSC 658450] was tested, and the Correlation (ABCC3) was −0.5526.
`Cc1cc(C)c2c(=O)cc(-c3ccccc3)[nH]c2c1` [NSC 665925] gave a Correlation (ABCA4) of −0.4545.
`COC(=O)CCC(=O)NC1=C(Nc2ccccc2)C(=O)c2ccccc2C1=O` [NSC 670762] gave a Correlation (ABCC1) of −0.4326.
Compound `O=C1C=C(N2CCN(c3ccccn3)CC2)C(=O)c2c(O)ccc(O)c21` [NSC 658142] has a Correlation (ABCC3) of −0.4982 and a Correlation (ABCA3) of −0.4017.
For `C=C1C(=O)O[C@H]2[C@@H](O)[C@H](C)CCC/C(C)=C/CC[C@@]3(C)O[C@@H]3C[C@@H]12` [NSC 694509], the “Pearson's Correlation Coeff” value (ABCB1) was 0.2823 and the Correlation (ABCB5) was −0.2924.
With `COc1cc2cc[n+]3c(c2cc1OC)C(=O)c1ccccc1-3` [NSC 627787] the Correlation (ABCC7) was −0.5471.
For `CN1N=C(N)c2cn([C@@H]3O[C@H](COP(=O)(O)O)[C@@H](O)[C@H]3O)c3ncnc1c23` [NSC 280594], the Correlation (ABCB5) was −0.3477.
Compound `COc1cc(CNc2ccc(SC)cc2)cc(OC)c1OC` [NSC 650771] has a Correlation (ABCA4) of −0.3792.
In the case of `CCOC(=O)CNC(=O)NC12CC3CC(CC(C3)C1)C2` [NSC 208914], the Correlation (ABCC1) is reported as −0.4950.
Compound `CC(=O)O[C@@]12CO[C@@H]1CC(O)[C@@]1(C)C(=O)[C@H](O)C3=C(C)C(O)C[C@@](O)(C(OC(=O)c4ccccc4)C12)C3(C)C` (stereo partly drawn) [NSC 656178] has a Correlation (ABCA3) of −0.4318.
`CC(C)(C)NNc1c([N+](=O)[O-])cnn(-c2ccccc2)c1=O` [NSC 641820] showed a Correlation (ABCC3) of −0.3991.
In the case of `O=[N+]([O-])c1cccc(/C=N/Nc2ccc3ccccc3n2)c1O` [NSC 168468], the “Effect of PSC 833 on the heightened sensitivity of KB-V1 cells” value ([1]; MTT assay with 2 μM PSC 833) is reported as “completely reversed sensitivity”, the “Sensitivity of KB-V1 cells relative to parental KB-3-1 (potentiation by ABCB1)” value ([1]; MTT assay, 72 hrs) is reported as “equivalent to or greater than the potentiation effect observed for NSC 73306” and the “Correlation of antiproliferative activity with ABCB1 expression” value (ABCB1) is reported as 0.4839.
For `CC1(C)C[C@]23[C@@H]4COC(=O)[C@H]2CC[C@H]1[C@@H]3CC4=O` [NSC 284437], the Correlation (ABCB11) was −0.5273.
Work on `COc1cc2c(c(OC(C)=O)c1OC(C)=O)-c1ccc(SC)c(=O)cc1C(NC(C)=O)CC2` (stereo not drawn) [NSC 374979] yielded a Correlation (ABCA3) of −0.4573.
In the case of `Cc1c2ccnc(-c3ccccc3)c2cc2c1[nH]c1ccccc12` [NSC 86715], the “Correlation of antiproliferative activity with ABCB1 expression” value (ABCB1) is reported as 0.5323 and the Correlation (ABCC7) is reported as −0.5696.
`C=CCn1c2ccccc2c2c(C)c3cnccc3c(C)c21` [NSC 150834] showed a Correlation (ABCB11) of −0.5267.
